Measured values as given in ChEMBL document CHEMBL1240429, “N'-[(5-chloro-3-methyl-1-phenyl-1H-pyrazol-4-yl)methylene] 2/4-substituted hydrazides: synthesis and anticonvulsant activity” (Eur J Med Chem, 2010).
The source made the active and inactive calls. The rule behind the calls is not given here.

Experiments:
Mus musculus [1] = assay: Anticonvulsant activity in ip dosed albino mouse assessed as protection against scPTZ-induced seizures after 30 mins; type: functional; settings: 0.5 h
Mus musculus [2] = assay: Anticonvulsant activity in ip dosed albino mouse assessed as protection against MES-induced seizures after 4 hrs; type: functional
Mus musculus [3] = assay: Anticonvulsant activity in ip dosed albino mouse assessed as protection against scPTZ-induced seizures after 4 hrs; type: functional
Mus musculus [4] = assay: Anticonvulsant activity in ip dosed albino mouse assessed as protection against MES-induced seizures after 30 mins; type: functional; settings: 0.5 h
[5] = Neurotoxicity in ip dosed albino mouse assessed as inability to maintain equilibrium on rotarod after 30 mins by rotarod test; type: toxicity, organism-based; settings: in vivo

SMILES	ED50 (Mus musculus [1])	ED50 (Mus musculus [2])	ED50 (Mus musculus [3])	ED50 (Mus musculus [4])	TD50 at 0.5 h [5]
Cc1nn(-c2ccccc2)c(Cl)c1/C=N/NC(=O)c1ccc(Cl)cc1Cl	300 mg/kg	inactive	inactive	300 mg/kg	–
Cc1nn(-c2ccccc2)c(Cl)c1/C=N/NC(=O)c1ccc(Cl)cc1	100 mg/kg	300 mg/kg	100 mg/kg	100 mg/kg	300 mg/kg
Cc1nn(-c2ccccc2)c(Cl)c1/C=N/NC(=O)c1ccc(F)cc1	100 mg/kg	100 mg/kg	100 mg/kg	100 mg/kg	–
Cc1nn(-c2ccccc2)c(Cl)c1/C=N/NC(=O)c1ccc([N+](=O)[O-])cc1	300 mg/kg	300 mg/kg	inactive	100 mg/kg	–
Cc1nn(-c2ccccc2)c(Cl)c1/C=N/NC(=O)Cc1ccc(Cl)cc1	100 mg/kg	300 mg/kg	300 mg/kg	100 mg/kg	300 mg/kg
O=C1NC(=O)C(c2ccccc2)(c2ccccc2)N1 [PHENYTOIN]	–	30 mg/kg	–	30 mg/kg	–
Cc1nn(-c2ccccc2)c(Cl)c1/C=N/NC(=O)c1ccccc1	–	–	–	–	100 mg/kg
Cc1nn(-c2ccccc2)c(Cl)c1/C=N/NC(=O)COc1ccccc1	–	–	–	–	300 mg/kg
CCCC(CCC)C(=O)[O-].[Na+] [VALPROATE SODIUM]	300 mg/kg	–	inactive	–	–
Cc1ccc(C(=O)N/N=C/c2c(C)nn(-c3ccccc3)c2Cl)cc1	–	–	–	–	100 mg/kg
Cc1nn(-c2ccccc2)c(Cl)c1/C=N/NC(=O)Cc1cccc2ccccc12	300 mg/kg	100 mg/kg	inactive	100 mg/kg	–
